Molecules are shown by their SMILES.

Sequence of Beta-3 Adrenergic Receptor (P13945 whole entry, species assumed): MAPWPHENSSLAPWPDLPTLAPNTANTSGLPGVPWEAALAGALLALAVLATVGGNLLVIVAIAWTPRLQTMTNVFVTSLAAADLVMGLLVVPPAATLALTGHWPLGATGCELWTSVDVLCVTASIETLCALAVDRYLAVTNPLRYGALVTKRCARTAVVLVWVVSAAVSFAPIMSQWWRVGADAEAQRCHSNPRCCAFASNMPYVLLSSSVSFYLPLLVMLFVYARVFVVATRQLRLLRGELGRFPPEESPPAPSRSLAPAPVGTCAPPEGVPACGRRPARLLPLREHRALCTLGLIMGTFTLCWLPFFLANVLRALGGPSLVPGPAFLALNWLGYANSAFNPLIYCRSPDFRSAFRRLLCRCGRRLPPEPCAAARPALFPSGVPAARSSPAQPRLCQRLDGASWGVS

The target of the test is Beta-3 Adrenergic Receptor (Homo sapiens (Human), UniProt P13945). Nature of the test: HTRF cAMP antagonist assay (IC50 determination). It counts as cell-based. Particulars: CHO-K1 cells stably expressing recombinant receptor; antagonism of isoproterenol at EC90; cAMP readout. The essentials:
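CHO-K1 cells stably expressing the recombinant receptor were preincubated with compound (10-point, 5-fold dilutions; top final typically 10 or 100 μM) in PBS with 1 mM IBMX, then stimulated with isoproterenol at its EC90 for 1 h at room temperature. cAMP was read by HTRF against an on-plate standard curve.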
Turning to `CC(C)S(=O)(=O)c1cccc(OC[C@@H](O)CN[C@H]2COC3(CCN(S(=O)(=O)c4cnc5c(F)cccc5c4O)CC3)C2)c1` [Compound 323, 8-fluoro-3-((R)-3-((S)-2-hydroxy-3-(3-(isopropylsulfonyl)phenoxy)propylamino)-1-oxa-8-azaspiro[4.5]decan-8-ylsulfonyl)quinolin-4-ol], the 50% inhibitory concentration (IC50) (in general, the concentration that gives 50% inhibition) is 49.6 nM.
With `CS(=O)(=O)c1cccc(OC[C@@H](O)CN[C@H]2COC3(CCN(S(=O)(=O)c4cnc5cc[nH]c5c4)CC3)C2)c1` [Compound 320, (S)-1-((R)-8-(1H-pyrrolo[3,2-b]pyridin-6-ylsulfonyl)-1-oxa-8-azaspiro[4.5]decan-3-ylamino)-3-(3-(methylsulfonyl)phenoxy)propan-2-ol] the figure was 11.2 nM; with `O=S(=O)(c1cccc(OC[C@@H](O)CN[C@H]2COC3(CCN(S(=O)(=O)c4cnc5c(c4)CCCC5)CC3)C2)c1)C1CC1` [Compound 282, (S)-1-(3-(cyclopropylsulfonyl)phenoxy)-3-((R)-8-(5,6,7,8-tetrahydroquinolin-3-ylsulfonyl)-1-oxa-8-azaspiro[4.5]decan-3-ylamino)propan-2-ol], 23.7 nM.
With `Cc1cc(S(=O)(=O)N2CCC3(CC2)C[C@@H](NC[C@H](O)COc2cccc(S(=O)(=O)C4(CO)CC4)c2)CO3)ccc1Br` [Compound 194, (S)-1-((R)-8-(4-bromo-3-methylphenylsulfonyl)-1-oxa-8-azaspiro[4.5]decan-3-ylamino)-3-(3-(1-(hydroxymethyl)cyclopropylsulfonyl)phenoxy)propan-2-ol] the figure was 13.6 nM.
Consider `CS(=O)(=O)c1cccc(OC[C@@H](O)CN[C@H]2COC3(CCN(S(=O)(=O)c4cnc5ccccc5c4)CC3)C2)c1` [Compound 118, (S)-1-(3-(methylsulfonyl)phenoxy)-3-((R)-8-(quinolin-3-ylsulfonyl)-1-oxa-8-azaspiro[4.5]decan-3-ylamino)propan-2-ol], for which the IC50 is 10.4 nM.
The same measure for `CCn1cc(S(=O)(=O)N2CCC3(CC2)C[C@@H](NC[C@H](O)COc2cccc(S(=O)(=O)C(C)(C)CO)c2)CO3)c(=O)c2ccccc21` [Compound 294, 1-ethyl-3-((R)-3-((S)-2-hydroxy-3-(3-(1-hydroxy-2-methylpropan-2-ylsulfonyl)phenoxy)propylamino)-1-oxa-8-azaspiro[4.5]decan-8-ylsulfonyl)quinolin-4(1H)-one]: 110 nM; for `CCOc1ccc(-c2ccc(C3(N)CC3)cc2)cc1S(=O)(=O)N1CCC2(CC1)C[C@H](NC[C@H](O)COc1cccc(S(=O)(=O)C3CC3)c1)CO2` [Compound 252]: 29.3 nM; for `O=S(=O)(CC1CCCCC1)c1cccc(OC[C@@H](O)CNC2COC3(CCN(S(=O)(=O)c4ccc5ccccc5c4)CC3)C2)c1` (stereo partly drawn) [Compound 16, (2S)-1-(3-(cyclohexylmethylsulfonyl)phenoxy)-3-(8-(naphthalen-2-ylsulfonyl)-1-oxa-8-azaspiro[4.5]decan-3-ylamino)propan-2-ol]: 133 nM.
Regarding `O=C1Cc2cc(S(=O)(=O)N3CCC4(CC3)C[C@@H](NC[C@H](O)COc3cccc(S(=O)(=O)C5CC5)c3)CO4)cnc2N1` [Compound 313, 5-((R)-3-((S)-3-(3-(cyclopropylsulfonyl)phenoxy)-2-hydroxypropylamino)-1-oxa-8-azaspiro[4.5]decan-8-ylsulfonyl)-1H-pyrrolo[2,3-b]pyridin-2(3H)-one], the IC50 is 141 nM.
Take `CN1CCN(C)c2ncc(S(=O)(=O)N3CCC4(CC3)C[C@@H](NC[C@H](O)COc3cccc(S(=O)(=O)C5(CO)CC5)c3)CO4)cc21` [Compound 222, (S)-1-((R)-8-(1,4-dimethyl-1,2,3,4-tetrahydropyrido[3,2-b]pyrazin-7-ylsulfonyl)-1-oxa-8-azaspiro[4.5]decan-3-ylamino)-3-(3-(1-(hydroxymethyl)cyclopropylsulfonyl)phenoxy)propan-2-ol]: the IC50 was determined as 47.6 nM.
For the compound `CCn1ncc(S(=O)(=O)N2CCC3(CC2)CC(NC[C@H](O)COc2cccc(S(C)(=O)=O)c2)CO3)c1C` (stereo partly drawn) [Compound 58, (2S)-1-(8-(1-ethyl-5-methyl-1H-pyrazol-4-ylsulfonyl)-1-oxa-8-azaspiro[4.5]decan-3-ylamino)-3-(3-(methylsulfonyl)phenoxy)propan-2-ol], the IC50 was 109 nM.
Turning to `O=S(=O)(CCO)c1cccc(OC[C@@H](O)CN[C@H]2COC3(CCN(S(=O)(=O)c4ccc(-c5cccnc5)cc4)CC3)C2)c1` [Compound 99, (S)-1-(3-(2-hydroxyethylsulfonyl)phenoxy)-3-((R)-8-(4-(pyridin-3-yl)phenylsulfonyl)-1-oxa-8-azaspiro[4.5]decan-3-ylamino)propan-2-ol], the IC50 is 287 nM.
As to `CS(=O)(=O)c1cccc(OC[C@@H](O)CNC2COC3(CCN(S(=O)(=O)c4cccc(-c5cnn(C6CC6)c5)c4)CC3)C2)c1` (stereo partly drawn) [Compound 39, (2S)-1-(8-(3-(1-cyclopropyl-1H-pyrazol-4-yl)phenylsulfonyl)-1-oxa-8-azaspiro[4.5]decan-3-ylamino)-3-(3-(methylsulfonyl)phenoxy)propan-2-ol], the IC50 came to 70.8 nM.
Take `CN1CCOc2cc(S(=O)(=O)N3CCC4(CC3)C[C@@H](NC[C@H](O)COc3cccc(S(=O)(=O)C5(CO)CC5)c3)CO4)cnc21` [Compound 286, (S)-1-(3-(1-(hydroxymethyl)cyclopropylsulfonyl)phenoxy)-3-((R)-8-(4-methyl-3,4-dihydro-2H-pyrido[3,2-b][1,4]oxazin-7-ylsulfonyl)-1-oxa-8-azaspiro[4.5]decan-3-ylamino)propan-2-ol]: the IC50 was determined as 56.9 nM.
Consider `CS(=O)(=O)c1cccc(OC[C@@H](O)CNC2COC3(CCN(S(=O)(=O)c4cccc(-c5ccc(N)nc5)c4)CC3)C2)c1` (stereo partly drawn) [Compound 70, (2S)-1-(8-(3-(6-aminopyridin-3-yl)phenylsulfonyl)-1-oxa-8-azaspiro[4.5]decan-3-ylamino)-3-(3-(methylsulfonyl)phenoxy)propan-2-ol], for which the IC50 was 24.4 nM.
As for `CS(=O)(=O)c1cccc(OC[C@H](O)CN[C@@H]2COC3(CCN(S(=O)(=O)c4ccc5ccccc5c4)CC3)C2)c1` [Compound 33, (R)-1-(3-(methylsulfonyl)phenoxy)-3-((S)-8-(naphthalen-2-ylsulfonyl)-1-oxa-8-azaspiro[4.5]decan-3-ylamino)propan-2-ol], the IC50 came out at 189 nM.
Regarding `Cc1nc2c(cc1S(=O)(=O)N1CCC3(CC1)C[C@@H](NC[C@H](O)COc1cccc(S(=O)(=O)C4CC4)c1)CO3)N(C)CCO2` [Compound 259, (S)-1-(3-(cyclopropylsulfonyl)phenoxy)-3-((R)-8-(1,6-dimethyl-2,3-dihydro-1H-pyrido[2,3-b][1,4]oxazin-7-ylsulfonyl)-1-oxa-8-azaspiro[4.5]decan-3-ylamino)propan-2-ol], the IC50 worked out at 158 nM.
With `O=S(=O)(CCO)c1cccc(OC[C@@H](O)CN[C@H]2COC3(CCN(S(=O)(=O)c4ccc5c(c4)CCCO5)CC3)C2)c1` [Compound 83, (S)-1-((R)-8-(chroman-6-ylsulfonyl)-1-oxa-8-azaspiro[4.5]decan-3-ylamino)-3-(3-(2-hydroxyethylsulfonyl)phenoxy)propan-2-ol] the figure was 53.5 nM; with `Cn1cc(-c2cccc(S(=O)(=O)N3CCC4(CC3)CC(NC[C@H](O)COc3cccc(S(C)(=O)=O)c3)CO4)c2)cn1` (stereo partly drawn) [Compound 40, (2S)-1-(8-(3-(1-methyl-1H-pyrazol-4-yl)phenylsulfonyl)-1-oxa-8-azaspiro[4.5]decan-3-ylamino)-3-(3-(methylsulfonyl)phenoxy)propan-2-ol], 20.3 nM; with `CS(=O)(=O)c1cccc(OC[C@@H](O)CNC2COC3(CCN(S(=O)(=O)c4cccc(Br)c4)CC3)C2)c1` (stereo partly drawn) [Compound 69, (2S)-1-(8-(3-bromophenylsulfonyl)-1-oxa-8-azaspiro[4.5]decan-3-ylamino)-3-(3-(methylsulfonyl)phenoxy)propan-2-ol], 21.2 nM.
Consider `CCOc1ccc(-c2ccc(C3(N)CC3)cc2)cc1S(=O)(=O)N1CCC2(CC1)C[C@H](NC[C@H](O)COc1cccc(S(=O)(=O)CC)c1)CO2` [Compound 256, (S)-1-((S)-8-(4′-(1-aminocyclopropyl)-4-ethoxybiphenyl-3-ylsulfonyl)-1-oxa-8-azaspiro[4.5]decan-3-ylamino)-3-(3-(ethylsulfonyl)phenoxy)propan-2-ol], for which the IC50 was found to be 32.6 nM.
For the compound `Cc1noc(C)c1S(=O)(=O)N1CCC2(CC1)CC(NC[C@H](O)COc1cccc(S(C)(=O)=O)c1)CO2` (stereo partly drawn) [Compound 52, (2S)-1-(8-(3,5-dimethylisoxazol-4-ylsulfonyl)-1-oxa-8-azaspiro[4.5]decan-3-ylamino)-3-(3-(methylsulfonyl)phenoxy)propan-2-ol], the IC50 is 61.2 nM.
As for `C[C@@H]1CN(C)c2cc(S(=O)(=O)N3CCC4(CC3)C[C@@H](NC[C@H](O)COc3cccc(S(=O)(=O)C5CC5)c3)CO4)cnc2O1` [Compound 305, (S)-1-(3-(cyclopropylsulfonyl)phenoxy)-3-((R)-8-((R)-1,3-dimethyl-2,3-dihydro-1H-pyrido[2,3-b][1,4]oxazin-7-ylsulfonyl)-1-oxa-8-azaspiro[4.5]decan-3-ylamino)propan-2-ol], the IC50 was 17.1 nM.
`CCn1cc(S(=O)(=O)N2CCC3(CC2)C[C@@H](NC[C@H](O)COc2cccc(S(=O)(=O)C4CC4)c2)CO3)c(=O)c2ccccc21` [Compound 297, 3-((R)-3-((S)-3-(3-(cyclopropylsulfonyl)phenoxy)-2-hydroxypropylamino)-1-oxa-8-azaspiro[4.5]decan-8-ylsulfonyl)-1-ethylquinolin-4(1H)-one]: the IC50 came to 26.5 nM.
Consider `NC1(c2ccc(-c3cccc(S(=O)(=O)N4CCC5(CC4)C[C@@H](NC[C@H](O)COc4cccc(S(=O)(=O)C6(CO)CC6)c4)CO5)c3)cc2)CC1` [Compound 173, (S)-1-((R)-8-(4′-(1-aminocyclopropyl)biphenyl-3-ylsulfonyl)-1-oxa-8-azaspiro[4.5]decan-3-ylamino)-3-(3-(1-(hydroxymethyl)cyclopropylsulfonyl)phenoxy)propan-2-ol], for which the IC50 was 31.2 nM.
